# In patent US4698352A, “4-oxo-1,4-dihydronicotinic acid derivatives, salts thereof, and antibacterial agents containing the same” (Toyama Chemical Co., Ltd., priority 1982, dated 1987):
# Where two headings read alike, the source gives them in different places.
# Experiments:
# Assay in all cases: Antibacterial activity (MIC), agar dilution
# Assay type in all cases: cell-based
# Aci. antitratus A-6 = settings: 20 h, Aci. antitratus A-6; 10^6 cells per ml; 37° C., 20 hours; read-out: MIC
# Excerpt: (§1) The amount of bacteria inoculated was 10^4 cells per plate (10^6 cells per ml).
# E. coli NIHJ JC-2 = settings: Escherichia coli, NIHJJC2, 20 h, E. coli NIHJ JC-2; 10^6 cells per ml; 37° C., 20 hours; read-out: MIC
# Excerpt: as §1
# E. coli TK-111 = settings: Escherichia coli, TK111, 20 h, E. coli TK-111; 10^6 cells per ml; 37° C., 20 hours; read-out: MIC
# Excerpt: as §1
# Ent. cloacae IID977 = settings: Enterobacter cloacae, IID977, 20 h
# Excerpt: as §1
# Kl. pneumoniae Y-41 = settings: Klebsiella pneumoniae, Y41, 10^6 cells per ml, 37° C., 20 hours, read-out: MIC
# Excerpt: as §1
# Kl. pneumoniae Y-50 = settings: Klebsiella pneumoniae, Y50, 20 h, 10^6 cells per ml, 37° C., read-out: MIC
# Excerpt: as §1
# Pro. mirabilis T-111 = settings: Proteus mirabilis, 37° C.
# Excerpt: as §1
# Pro. morganii T-216 = settings: Morganella morganii, 37° C.
# Excerpt: as §1
# Pro. vulgaris GN3027 = settings: Proteus vulgaris, GN3027, 20 h, Pro. vulgaris GN3027; 10^6 cells per ml; 37° C., 20 hours; read-out: MIC
# Excerpt: as §1
# Ps. aeruginosa IFO3445 = settings: Pseudomonas aeruginosa; Ps. aeruginosa IFO3445; 10^6 cells per ml; 37° C., 20 hours; read-out: MIC
# Excerpt: as §1
# Ps. aeruginosa S-68 = settings: Pseudomonas aeruginosa
# Excerpt: as §1
# St. aureus FDA209P = settings: Staphylococcus aureus, FDA209P, 20 h
# Excerpt: as §1
# E. coli TK-3* = settings: Escherichia coli, 20 h
# Excerpt: as §1
# (§2) * Penicillinase-producing bacteria
# Kl. pneumoniae Y-4* = settings: Klebsiella pneumoniae, 20 h, Kl. pneumoniae Y-4, penicillinase-producing; 10^6 cells per ml; read-out: MIC
# Excerpt: as §1, §2
# Ps. aeruginosa GN3379* = settings: Pseudomonas aeruginosa, 20 h; Ps. aeruginosa GN3379, penicillinase-producing; 10^6 cells per ml; read-out: MIC
# Excerpt: as §1, §2
# St. aureus F-137* = settings: Staphylococcus aureus, 20 h
# Excerpt: as §1, §2
# E. coli GN5482** = settings: Escherichia coli, 20 h; E. coli GN5482, cephalospolinase-producing; 10^6 cells per ml; read-out: MIC
# Excerpt: as §1
# (§3) ** Cephalospolinase-producing bacteria
# Pro. vulgaris GN76** = settings: Proteus vulgaris
# Excerpt: as §1, §3
# Ps. aeruginosa GN918** = settings: Ps. aeruginosa GN918, cephalospolinase-producing, 10^6 cells per ml
# Excerpt: as §1, §3
# [1] = Ent. cloacae IID977, 10^6 cells per ml, 37° C., 20 hours, read-out: MIC
# [2] = T216, 10^6 cells per ml, 20 hours, read-out: MIC
# [3] = S68, Ps. aeruginosa S-68, 10^6 cells per ml, 37° C., 20 hours, read-out: MIC
# [4] = St. aureus FDA209P, 10^6 cells per ml, 37° C., 20 hours, read-out: MIC
# [5] = E. coli TK-3, penicillinase-producing, 10^6 cells per ml, read-out: MIC
# [6] = St. aureus F-137, penicillinase-producing, 10^6 cells per ml, read-out: MIC
# [7] = 20 h, Pro. vulgaris GN76, cephalospolinase-producing, 10^6 cells per ml, read-out: MIC
# [8] = Pseudomonas aeruginosa, 20 h, read-out: MIC
SMILES,MIC (Aci. antitratus A-6),MIC (E. coli NIHJ JC-2),MIC (E. coli TK-111),MIC (Ent. cloacae IID977; [1]),MIC (Kl. pneumoniae Y-41),MIC (Kl. pneumoniae Y-50),MIC (Pro. morganii T-216; [2]),MIC (Pro. vulgaris GN3027),MIC (Ps. aeruginosa IFO3445),MIC (Ps. aeruginosa S-68; [3]),MIC (St. aureus FDA209P; [4]),MIC (Kl. pneumoniae Y-4*),MIC (Ps. aeruginosa GN3379*),MIC (St. aureus F-137*; [6]),MIC (E. coli GN5482**),MIC (Pro. vulgaris GN76**; [7]),MIC (Ps. aeruginosa GN918**; [8]),"MIC (Pro. mirabilis T-111; T111, 20 h, 10^6 cells per ml)","MIC (Pro. morganii T-216; T216, 20 h, 10^6 cells per ml)",MIC (E. coli TK-3*),other results
COc1ccc(-c2cc(=O)c(C(=O)O)cn2-c2ccc(O)cc2C)cc1,0.2 mg/L,0.1 mg/L,0.05 mg/L,0.39 mg/L,0.78 mg/L,0.1 mg/L,1.56 mg/L,≤ 0.05 mg/L,3.13 mg/L,3.13 mg/L,0.1 mg/L,0.78 mg/L,12.5 mg/L,0.1 mg/L,≤ 0.05 mg/L,0.39 mg/L,1.56 mg/L,,,,"MIC (Pro. mirabilis T-111; T111, 10^6 cells per ml, 20 hours, read-out: MIC): 1.56 mg/L; MIC (E. coli TK-3*; [5]): 0.2 mg/L"
Cc1ccc(-c2cc(=O)c(C(=O)O)cn2-c2ccc(F)cc2)s1,1.56 mg/L,1.56 mg/L,0.78 mg/L,,6.25 mg/L,3.13 mg/L,,0.2 mg/L,50 mg/L,25 mg/L,,12.5 mg/L,25 mg/L,,0.2 mg/L,1.56 mg/L,50 mg/L,6.25 mg/L,3.13 mg/L,3.13 mg/L,MIC (Ent. cloacae IID977): 3.13 mg/L; MIC (St. aureus FDA209P): 3.13 mg/L; MIC (St. aureus F-137*): 3.13 mg/L
CC(=O)Oc1ccc(-n2cc(C(=O)OCCN(C)C)c(=O)cc2-c2ccc(N(C)C)cc2)cc1 [drawing 37],0.39 mg/L,0.39 mg/L,0.2 mg/L,1.56 mg/L,3.13 mg/L,0.78 mg/L,,0.39 mg/L,12.5 mg/L,,0.39 mg/L,6.25 mg/L,12.5 mg/L,0.39 mg/L,≤ 0.05 mg/L,1.56 mg/L,,6.25 mg/L,3.13 mg/L,,"MIC (Ps. aeruginosa S-68; S68, 20 h): 6.25 mg/L; MIC (E. coli TK-3*; [5]): 1.56 mg/L; MIC (Ps. aeruginosa GN918**): 3.13 mg/L"
COc1ccc(-c2cc(=O)c(C(=O)O)cn2-c2ccc(F)cc2)cc1,1.56 mg/L,1.56 mg/L,0.78 mg/L,6.25 mg/L,12.5 mg/L,3.13 mg/L,6.25 mg/L,0.39 mg/L,25 mg/L,25 mg/L,,12.5 mg/L,25 mg/L,,0.2 mg/L,,50 mg/L,12.5 mg/L,,3.13 mg/L,"MIC (St. aureus FDA209P): 3.13 mg/L; MIC (St. aureus F-137*): 3.13 mg/L; MIC (Pro. vulgaris GN76**; GN76, 20 h): 3.13 mg/L"
Cc1nc(-c2ccc(-c3cc(=O)c(C(=O)O)cn3-c3ccc(F)cc3)cc2)cs1,0.1 mg/L,1.56 mg/L,0.39 mg/L,,6.25 mg/L,3.13 mg/L,,1.56 mg/L,25 mg/L,12.5 mg/L,0.2 mg/L,25 mg/L,25 mg/L,0.2 mg/L,0.78 mg/L,,,6.25 mg/L,3.13 mg/L,3.13 mg/L,"MIC (Ent. cloacae IID977): 6.25 mg/L; MIC (Pro. vulgaris GN76**; GN76, 20 h): 3.13 mg/L; MIC (Ps. aeruginosa GN918**; Pseudomonas aeruginosa, GN918, 20 h): 3.13 mg/L"
